Paper PMC11602988 (The Journal of Biological Chemistry, 2024)
“Also recorded” adds a separate entry of the source.

Columns and labels:
OCT1 Phe244Ala variant [1] = biological target: T1, OCT1 Phe244Ala variant (Homo sapiens, UniProt O15245, F244A); assay: Concentration-dependent uptake kinetics, HEK293 cells overexpressing OCT1 Phe244Ala; conditions: for Clint: OCT1 Phe244Ala, ratio of vmax over Km;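 as to all read-outs here: cells exposed to rising substrate concentrations in buffer, intracellular drug measured by HPLC-tandem mass spectrometry, quantified against a standard curve, uptake referenced to empty vector-transfected HEK293 controls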
T1 sequence (O15245 1-554 F244A): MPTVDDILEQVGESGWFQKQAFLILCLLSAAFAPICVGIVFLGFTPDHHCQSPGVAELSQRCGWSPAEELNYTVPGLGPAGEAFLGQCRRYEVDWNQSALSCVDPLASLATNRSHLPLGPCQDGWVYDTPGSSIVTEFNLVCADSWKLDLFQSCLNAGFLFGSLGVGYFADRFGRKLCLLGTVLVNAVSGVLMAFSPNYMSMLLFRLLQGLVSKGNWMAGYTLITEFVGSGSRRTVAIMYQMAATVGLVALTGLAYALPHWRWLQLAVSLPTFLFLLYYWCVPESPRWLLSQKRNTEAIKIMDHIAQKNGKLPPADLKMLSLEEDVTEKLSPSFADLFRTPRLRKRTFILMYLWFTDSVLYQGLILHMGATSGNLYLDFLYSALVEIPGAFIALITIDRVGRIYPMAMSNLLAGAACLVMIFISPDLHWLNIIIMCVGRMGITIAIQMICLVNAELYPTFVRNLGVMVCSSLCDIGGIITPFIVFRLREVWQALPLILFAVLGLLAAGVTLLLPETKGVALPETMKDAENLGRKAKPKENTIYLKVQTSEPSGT
Protocol: (§1) All experiments were carried out using transporter-overexpressing HEK293 cells. […] Cells were cultivated in Dulbecco’s Modified Eagle’s medium supplemented with 10% fetal calf serum, 100 U/ml penicillin, and 100 μg/ml streptomycin. Cells were passaged twice a week and kept in culture for no longer than 30 passages.
(§2) For uptake studies, 300,000 HEK293 cells were plated in each well of 24-well plates precoated with poly-D-lysine 48 prior to the experiment. On the day of the experiment, cells were washed once with prewarmed to 37 °C HBSS+ (Hank’s balanced salt solution supplemented with 10 mM Hepes, both Sigma-Aldrich). […] Uptake was stopped by adding ice-cold HBSS+ and cells were washed twice with ice-cold buffer before cell lysis was done using 80% acetonitrile containing an appropriate internal standard for eventual mass spectrometry. Relative quantification was done by comparison of transporter-overexpressing cells to empty vector–transfected controls. For uptake kinetic experiments, cells were incubated with increasing concentrations of substrate dissolved in HBSS+. Absolute quantification was done later by comparison to a standard curve in lysis buffer with known concentration.
(§3) Intracellular drug concentrations were detected and quantified by HPLC coupled to mass spectrometry. […] Substance-specific conditions were used to adjust the retention times of the analytes.
(§4) Transport ratios were determined as relative fold-increase of the uptake in transporter-overexpressing cells over empty vector–transfected control cells. For transport kinetic experiments, absolute substrate quantification was done by signal comparison to a standard curve with known concentrations. Net uptake was then determined by subtracting the uptake into empty vector–transfected cells from transporter-overexpressing cells. […] Vmax defines the maximum transport velocity, Km refers to the substrate concentration required to reach half vmax. The intrinsic clearance Clint is the ratio of vmax over Km.

OCT1 Phe244Ala variant [2] = biological target: T1, OCT1 Phe244Ala variant; assay: Uptake screening (transport ratio over empty vector), HEK293 cells overexpressing OCT1 Phe244Ala variant; format: cell-based; design: expressed in transfected cells; conditions: for relative_Phe244Ala_uptake_in%: Phe244Ala uptake relative to OCT1 WT;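 as to all read-outs here: stably transfected HEK293 cells, intracellular substrate quantified by HPLC-tandem mass spectrometry in cell lysates, uptake in HBSS+ buffer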
Protocol: as §1, §2, §3, §4

OCT1 WT [3] = biological target: T2, OCT1 WT (Homo sapiens, UniProt O15245); assay: Concentration-dependent uptake kinetics, HEK293 cells overexpressing OCT1 WT; conditions: OCT1 WT; ratio of vmax over Km
T2 sequence (O15245 1-554): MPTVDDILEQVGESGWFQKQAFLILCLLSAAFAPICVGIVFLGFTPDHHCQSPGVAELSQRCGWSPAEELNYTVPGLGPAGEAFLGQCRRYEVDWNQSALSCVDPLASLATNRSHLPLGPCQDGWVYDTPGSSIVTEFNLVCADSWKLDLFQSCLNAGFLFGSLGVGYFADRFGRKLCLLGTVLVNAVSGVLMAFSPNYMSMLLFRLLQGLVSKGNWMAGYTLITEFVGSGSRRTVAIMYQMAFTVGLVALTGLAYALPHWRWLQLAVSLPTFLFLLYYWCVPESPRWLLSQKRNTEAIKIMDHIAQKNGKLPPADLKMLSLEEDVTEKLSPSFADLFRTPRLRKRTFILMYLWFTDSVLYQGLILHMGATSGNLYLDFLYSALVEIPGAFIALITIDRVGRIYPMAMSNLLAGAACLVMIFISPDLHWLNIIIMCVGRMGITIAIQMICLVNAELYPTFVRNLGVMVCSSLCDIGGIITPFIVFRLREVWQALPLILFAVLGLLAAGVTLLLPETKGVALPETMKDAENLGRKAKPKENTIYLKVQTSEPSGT
Protocol: as §1, §2, §3, §4

OCT1 Phe244Ala variant [4] = biological target: T1, OCT1 Phe244Ala variant; assay: cell-based
Protocol: (§5) For cellular inhibition experiments, 300,000 HEK293 cells were plated in poly-D-lysine precoated 24 well plates 48 h in advance. To study transporter inhibition, cells were incubated with 2 μM (R,S)-ethambutol with and without 20 μM inhibitor both dissolved in HBSS+.
(§6) In inhibition experiments, transporter activity was calculated as it follows: %OCT1activity=[Substrateinhibited]−[SubstrateEV]/[Substratenon−inhibited]−[SubstrateEV]
(§7) Substrateinhibited is the uptake of ethambutol into transporter-overexpressing cells in presence of an inhibitor, whereas substratenon-inhibited refers to the ethambutol uptake without coincubation with an inhibitor. SubstrateEV refers to the ethambutol uptake into empty vector–transfected control cells. Percent inhibition values where then calculated as in the following: %transporterinhibition=100%−transporteractivity In concentration-dependent inhibition experiments, the transporter activity was plotted against the log10 of inhibitor concentrations. The data was then analyzed by the following formula to determine IC50 values: Y=Ymin+(Ymax−Ymin)/1+10^log10(IC50−x)∙hillslope
(§8) Y describes the transporter activity, whereas Ymax is to the maximum and Ymin to the minimal transporter activity. X refers to the log10 of inhibitor concentrations, IC50 characterizes the half-maximal inhibitory concentration, and hill slope describes the slope factor.

OCT1 WT [5] = biological target: T2, OCT1 WT; assay: cell-based
Protocol: as §5, §6, §7, §8

OCT1 Phe244Ala variant [6] = biological target: T1, OCT1 Phe244Ala variant; assay: Inhibition of (R,S)-ethambutol uptake, HEK293 cells overexpressing OCT1 Phe244Ala; conditions: for Inhibition of the Phe244Ala mutant compared to the WT transporter (screening): 20 μM inhibitor, 2 μM (R,S)-ethambutol, 5 min
Protocol: as §5, §6, §7, §8

OCT1 Phe244Ala variant [7] = biological target: T1, OCT1 Phe244Ala variant; assay: Stereoselective cell uptake of racemic substrates (chiral LC-MS/MS), OCT1 Phe244Ala variant; conditions: 2.5 μM racemic substance, 2 min
Protocol: (§9) Intracellular concentrations were quantified after chiral chromatography by mass spectrometry and are presented as mean ± SD of three independent experiments. […] Whenever the absolute steric conformation of the enantiomers was unknown, the enantiomers were termed according to their elution as enantiomer-1 (E1) and enantiomer-2 (E2).
as §2
Chromatography was carried out with in reversed-phase mode with an aqueous mobile phase buffered with ammonium acetate and supplemented with 2-propanol or methanol as organic modifiers (Table S2). Order of elution of enantiomers was obtained either by reference literature ([28], [29], [30], [31], [32], [33]) or by injecting single enantiomers. Whenever there was no information available, the first eluting enantiomer was referred to as E1 and the second as E2.
as §4

OCT1 WT [8] = biological target: T2, OCT1 WT; assay: Uptake screening (transport ratio over empty vector), HEK293 cells overexpressing OCT1 WT; format: cell-based; design: expressed in transfected cells;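 also: intracellular substrate levels quantified by HPLC–tandem mass spectrometry after uptake in HBSS+ buffer at 37 °C, stable Flp-In HEK293 lines, fold change versus empty vector–transfected cells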
Protocol: as §1, §2, §3, §4

OCT1 WT [9] = biological target: T2, OCT1 WT; assay: Stereoselective cell uptake of racemic substrates (chiral LC-MS/MS), OCT1 WT; conditions: 2.5 μM racemic substance, 2 min
Protocol: as §9
For uptake studies, 300,000 HEK293 cells were plated in each well of 24-well plates precoated with poly-D-lysine 48 prior to the experiment. On the day of the experiment, cells were washed once with prewarmed to 37 °C HBSS+ (Hank’s balanced salt solution supplemented with 10 mM Hepes, both Sigma-Aldrich). […] Relative quantification was done by comparison of transporter-overexpressing cells to empty vector–transfected controls. […] Absolute quantification was done later by comparison to a standard curve in lysis buffer with known concentration. […]
Transport ratios were determined as relative fold-increase of the uptake in transporter-overexpressing cells over empty vector–transfected control cells. For transport kinetic experiments, absolute substrate quantification was done by signal comparison to a standard curve with known concentrations. Net uptake was then determined by subtracting the uptake into empty vector–transfected cells from transporter-overexpressing cells. […]

SMILES	Clint (OCT1 Phe244Ala variant [1])	Km, Phe244Ala compared to WT (OCT1 Phe244Ala variant [1]; uptake kinetics, in words)	Clint (OCT1 WT [3])	IC50 (OCT1 Phe244Ala variant [4])	IC50 (OCT1 WT [5])	Inhibition of the Phe244Ala mutant compared to the WT transporter (screening) (OCT1 Phe244Ala variant [6])	Stereoselectivity of Phe244Ala variant compared to WT (OCT1 Phe244Ala variant [7])	relative_Phe244Ala_uptake_in% (OCT1 Phe244Ala variant [2])	further results
CN1CCN(CC(=O)N2c3ccccc3C(=O)Nc3cccnc32)CC1 [Pirenzepine]	2.74 ± 2.15 ml × g Protein^−1 × min^−1	lower Km values	0.43 ± 0.85 ml × g Protein^−1 × min^−1	23.3 µM	104 µM	more potent inhibition	–	–	Fold increased uptake rate by Phe244Ala compared to WT (OCT1 Phe244Ala variant [2]; 2.5 μM substrate, 2 min): 8.0 fold
CC(Cc1ccc(O)cc1)NCC(O)c1cc(O)cc(O)c1 (centres unmarked) [Fenoterol]	–	–	–	5.53 µM	0.541 µM	–	opposite stereoselectivities; also recorded: only one enantiomer of the racemic mixtures showed altered transport	–	–
Clc1cccc(Cl)c1N=C1NCCN1 [Clonidine]	–	–	–	34.3 µM	1.62 µM	strongly reduced inhibition	–	–	Fold difference of inhibitory potency between WT and Phe244Ala (OCT1 Phe244Ala variant [6]; IC50 comparison, (R,S)-ethambutol uptake): 21 fold
COc1cc(CCN)cc(OC)c1OC [Mescaline]	0.91 ± 2.50 ml × g Protein^−1 × min^−1	higher apparent affinity Km and transport capacity vmax for the WT transporter than the Phe244Ala variant	4.84 ± 2.55 ml × g Protein^−1 × min^−1	–	–	strongly reduced inhibition	–	16.381%	Maximum transport capacity (vmax), Phe244Ala compared to WT (OCT1 Phe244Ala variant [1]; uptake kinetics, in words): higher apparent affinity Km and transport capacity vmax for the WT transporter than the Phe244Ala variant; Transport activity of Phe244Ala in % of WT activity (OCT1 Phe244Ala variant [2]; 2.5 μM substrate, 2 min, Phe244Ala uptake relative to WT): ~10%; Mean_transport_ratio_Phe244Ala (OCT1 Phe244Ala variant [2]; uptake ratio of OCT1 Phe244Ala-overexpressing HEK293 cells over empty vector): 1.704; Mean_transport_ratio_WT (OCT1 WT [8]; uptake ratio of OCT1 WT-overexpressing HEK293 cells over empty vector): 5.297
O=C(NCCNCC(O)COc1ccc(O)cc1)N1CCOCC1 (centres unmarked) [Xamoterol]	–	–	–	–	–	–	only one enantiomer of the racemic mixtures showed altered transport	54.211%	Stereoselectivity of transport by the Phe244Ala variant (OCT1 Phe244Ala variant [7]): lacked any stereoselective transport; Stereoselectivity of uptake via WT OCT1 (OCT1 WT [9]): stereoselective uptake; Mean_transport_ratio_Phe244Ala (OCT1 Phe244Ala variant [2]; uptake ratio over empty vector, HEK293 cells overexpressing OCT1 Phe244Ala): 19.358; Mean_transport_ratio_WT (OCT1 WT [8]; uptake ratio over empty vector, HEK293 cells overexpressing OCT1 WT): 34.864
